Source: the kinase profiling compilation of Christmann-Franck et al. (2016)

Key:
Experiment in all cases: radiometric filter-binding kinase assay, Kinase HotSpot
Conditions in all cases: compound 0.5 µM; ATP 10 µM
[1] = biological target: FRK (human) (UniProt P42685)
[2] = biological target: OXSR1 (human) (UniProt O95747)
[3] = biological target: MAPK14 (human) (UniProt Q16539)
[4] = biological target: MKNK2 (human) (UniProt Q9HBH9)
[5] = biological target: ROCK1 (human) (UniProt Q13464)
[6] = biological target: LCK (human) (UniProt P06239)
[7] = biological target: LIMK1 (human) (UniProt P53667)
[8] = biological target: MAP4K2 (human) (UniProt Q12851)
[9] = biological target: CDK2 CCNE1 (human) (UniProt P24941+P24864)
[10] = biological target: FGFR2 (human) (UniProt P21802)
[11] = biological target: JAK1 JH1 catalytic (human) (UniProt P23458)
[12] = biological target: AURKA (human) (UniProt O14965)
[13] = biological target: DAPK2 (human) (UniProt Q9UIK4)
[14] = biological target: RET (human) (UniProt P07949)
[15] = biological target: MAPKAPK2 (human) (UniProt P49137)
[16] = biological target: SRPK1 (human) (UniProt Q96SB4)
[17] = biological target: KIT (human) (UniProt P10721)
[18] = biological target: PDGFRB (human) (UniProt P09619)
Chain of PDGFRB (human) (P09619 whole entry, looked up): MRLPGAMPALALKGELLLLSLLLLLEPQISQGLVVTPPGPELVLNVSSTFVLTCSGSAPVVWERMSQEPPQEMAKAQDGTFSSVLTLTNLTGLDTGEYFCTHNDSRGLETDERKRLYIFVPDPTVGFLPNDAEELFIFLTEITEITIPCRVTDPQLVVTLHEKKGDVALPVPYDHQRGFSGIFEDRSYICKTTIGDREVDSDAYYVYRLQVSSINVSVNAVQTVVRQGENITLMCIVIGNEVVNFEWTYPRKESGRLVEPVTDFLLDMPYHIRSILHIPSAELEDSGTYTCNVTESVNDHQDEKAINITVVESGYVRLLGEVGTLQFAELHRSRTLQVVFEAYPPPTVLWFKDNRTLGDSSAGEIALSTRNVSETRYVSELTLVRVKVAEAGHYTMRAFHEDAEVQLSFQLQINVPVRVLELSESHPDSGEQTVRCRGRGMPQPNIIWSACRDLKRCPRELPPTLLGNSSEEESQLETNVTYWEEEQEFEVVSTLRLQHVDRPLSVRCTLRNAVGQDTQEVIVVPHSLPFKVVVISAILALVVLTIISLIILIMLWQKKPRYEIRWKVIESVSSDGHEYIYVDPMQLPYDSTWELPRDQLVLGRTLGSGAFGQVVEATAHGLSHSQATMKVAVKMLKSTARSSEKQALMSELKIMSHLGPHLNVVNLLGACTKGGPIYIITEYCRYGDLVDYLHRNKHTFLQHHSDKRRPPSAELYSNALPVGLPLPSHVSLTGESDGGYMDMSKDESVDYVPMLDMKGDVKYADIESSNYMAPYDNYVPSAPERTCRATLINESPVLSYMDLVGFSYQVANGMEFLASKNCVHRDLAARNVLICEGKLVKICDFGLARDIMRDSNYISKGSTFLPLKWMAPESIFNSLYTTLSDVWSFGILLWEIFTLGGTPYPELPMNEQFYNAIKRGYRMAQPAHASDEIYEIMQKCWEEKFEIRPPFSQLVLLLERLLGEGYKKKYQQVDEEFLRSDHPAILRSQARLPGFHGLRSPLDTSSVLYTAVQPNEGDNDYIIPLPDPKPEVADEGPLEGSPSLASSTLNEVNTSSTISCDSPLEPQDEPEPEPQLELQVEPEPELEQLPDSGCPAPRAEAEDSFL

[19] = biological target: NEK2 (human) (UniProt P51955)
[20] = biological target: ACVR1B (human) (UniProt P36896)
Chain of ACVR1B (human) (P36896 whole entry, looked up): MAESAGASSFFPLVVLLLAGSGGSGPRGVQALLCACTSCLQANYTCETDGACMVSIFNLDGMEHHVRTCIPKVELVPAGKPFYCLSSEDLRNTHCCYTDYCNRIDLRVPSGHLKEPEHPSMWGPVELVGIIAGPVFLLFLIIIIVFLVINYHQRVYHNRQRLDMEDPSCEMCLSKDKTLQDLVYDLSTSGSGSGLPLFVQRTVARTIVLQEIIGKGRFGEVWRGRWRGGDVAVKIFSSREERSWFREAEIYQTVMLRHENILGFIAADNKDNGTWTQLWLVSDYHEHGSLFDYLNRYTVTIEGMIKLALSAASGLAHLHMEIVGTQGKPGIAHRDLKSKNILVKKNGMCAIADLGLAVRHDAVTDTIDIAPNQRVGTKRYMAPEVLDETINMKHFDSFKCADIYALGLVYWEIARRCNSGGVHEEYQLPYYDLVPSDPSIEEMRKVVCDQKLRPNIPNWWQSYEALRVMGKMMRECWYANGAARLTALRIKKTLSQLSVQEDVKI

[21] = biological target: JAK2 JH1 JH2 (human) (UniProt O60674)
[22] = biological target: CAMK2B (human) (UniProt Q13554)
[23] = biological target: TTK (human) (UniProt P33981)
Chain of TTK (human) (P33981 whole entry, looked up): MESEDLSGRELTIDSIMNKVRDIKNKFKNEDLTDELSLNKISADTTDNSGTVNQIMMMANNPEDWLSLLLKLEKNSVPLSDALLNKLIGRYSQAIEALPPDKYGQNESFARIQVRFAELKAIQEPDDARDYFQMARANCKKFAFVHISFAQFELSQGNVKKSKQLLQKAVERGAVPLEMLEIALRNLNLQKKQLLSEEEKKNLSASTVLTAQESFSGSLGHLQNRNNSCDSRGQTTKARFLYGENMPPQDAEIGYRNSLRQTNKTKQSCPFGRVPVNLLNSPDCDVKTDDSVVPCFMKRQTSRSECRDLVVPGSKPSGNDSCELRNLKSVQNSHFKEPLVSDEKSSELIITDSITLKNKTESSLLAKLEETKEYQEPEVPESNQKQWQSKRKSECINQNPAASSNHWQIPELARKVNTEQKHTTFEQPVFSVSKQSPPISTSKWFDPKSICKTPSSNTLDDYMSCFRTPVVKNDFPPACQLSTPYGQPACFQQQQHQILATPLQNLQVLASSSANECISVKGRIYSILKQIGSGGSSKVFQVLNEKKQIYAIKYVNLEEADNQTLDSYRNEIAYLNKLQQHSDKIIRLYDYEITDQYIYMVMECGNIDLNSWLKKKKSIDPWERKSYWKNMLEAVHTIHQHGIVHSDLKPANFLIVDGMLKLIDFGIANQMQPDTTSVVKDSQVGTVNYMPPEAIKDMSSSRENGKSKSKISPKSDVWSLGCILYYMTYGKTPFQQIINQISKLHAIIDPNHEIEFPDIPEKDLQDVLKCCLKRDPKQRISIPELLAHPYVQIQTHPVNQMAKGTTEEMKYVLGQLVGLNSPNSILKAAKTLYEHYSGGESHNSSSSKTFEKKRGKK

[24] = biological target: CHEK1 (human) (UniProt O14757)
[25] = biological target: AURKC (human) (UniProt Q9UQB9)
Chain of AURKC (human) (Q9UQB9 whole entry, looked up): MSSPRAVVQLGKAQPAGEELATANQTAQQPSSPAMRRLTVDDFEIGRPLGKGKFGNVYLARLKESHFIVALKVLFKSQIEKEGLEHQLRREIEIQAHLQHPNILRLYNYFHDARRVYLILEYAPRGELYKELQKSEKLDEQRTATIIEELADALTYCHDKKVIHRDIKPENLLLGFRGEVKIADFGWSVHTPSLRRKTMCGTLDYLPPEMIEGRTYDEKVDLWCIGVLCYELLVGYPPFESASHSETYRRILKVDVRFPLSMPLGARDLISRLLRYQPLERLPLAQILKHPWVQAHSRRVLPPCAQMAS

[26] = biological target: MAP3K14 (human) (UniProt Q99558)
[27] = biological target: EPHA5 (human) (UniProt P54756)
[28] = biological target: ERBB2 (human) (UniProt P04626)
[29] = biological target: PASK (human) (UniProt Q96RG2)
[30] = biological target: CAMK2D (human) (UniProt Q13557)
[31] = biological target: CSNK2A1 (human) (UniProt P68400)
Chain of CSNK2A1 (human) (P68400 whole entry, looked up): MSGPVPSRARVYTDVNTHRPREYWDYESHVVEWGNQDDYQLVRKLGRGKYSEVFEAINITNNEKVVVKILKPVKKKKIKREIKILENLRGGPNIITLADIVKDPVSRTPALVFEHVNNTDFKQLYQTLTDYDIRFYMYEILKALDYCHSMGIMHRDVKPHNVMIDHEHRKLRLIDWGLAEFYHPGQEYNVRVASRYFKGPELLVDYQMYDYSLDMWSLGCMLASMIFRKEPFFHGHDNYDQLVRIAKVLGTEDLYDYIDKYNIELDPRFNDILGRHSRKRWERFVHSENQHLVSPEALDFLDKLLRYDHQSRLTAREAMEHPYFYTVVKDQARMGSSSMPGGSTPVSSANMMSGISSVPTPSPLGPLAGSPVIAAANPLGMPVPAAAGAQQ

[32] = biological target: EPHB4 (human) (UniProt P54760)
[33] = biological target: TXK (human) (UniProt P42681)
[34] = biological target: DYRK1A (human) (UniProt Q13627)
[35] = biological target: PAK2 (human) (UniProt Q13177)
[36] = biological target: EPHA4 (human) (UniProt P54764)
Chain of EPHA4 (human) (P54764 whole entry, looked up): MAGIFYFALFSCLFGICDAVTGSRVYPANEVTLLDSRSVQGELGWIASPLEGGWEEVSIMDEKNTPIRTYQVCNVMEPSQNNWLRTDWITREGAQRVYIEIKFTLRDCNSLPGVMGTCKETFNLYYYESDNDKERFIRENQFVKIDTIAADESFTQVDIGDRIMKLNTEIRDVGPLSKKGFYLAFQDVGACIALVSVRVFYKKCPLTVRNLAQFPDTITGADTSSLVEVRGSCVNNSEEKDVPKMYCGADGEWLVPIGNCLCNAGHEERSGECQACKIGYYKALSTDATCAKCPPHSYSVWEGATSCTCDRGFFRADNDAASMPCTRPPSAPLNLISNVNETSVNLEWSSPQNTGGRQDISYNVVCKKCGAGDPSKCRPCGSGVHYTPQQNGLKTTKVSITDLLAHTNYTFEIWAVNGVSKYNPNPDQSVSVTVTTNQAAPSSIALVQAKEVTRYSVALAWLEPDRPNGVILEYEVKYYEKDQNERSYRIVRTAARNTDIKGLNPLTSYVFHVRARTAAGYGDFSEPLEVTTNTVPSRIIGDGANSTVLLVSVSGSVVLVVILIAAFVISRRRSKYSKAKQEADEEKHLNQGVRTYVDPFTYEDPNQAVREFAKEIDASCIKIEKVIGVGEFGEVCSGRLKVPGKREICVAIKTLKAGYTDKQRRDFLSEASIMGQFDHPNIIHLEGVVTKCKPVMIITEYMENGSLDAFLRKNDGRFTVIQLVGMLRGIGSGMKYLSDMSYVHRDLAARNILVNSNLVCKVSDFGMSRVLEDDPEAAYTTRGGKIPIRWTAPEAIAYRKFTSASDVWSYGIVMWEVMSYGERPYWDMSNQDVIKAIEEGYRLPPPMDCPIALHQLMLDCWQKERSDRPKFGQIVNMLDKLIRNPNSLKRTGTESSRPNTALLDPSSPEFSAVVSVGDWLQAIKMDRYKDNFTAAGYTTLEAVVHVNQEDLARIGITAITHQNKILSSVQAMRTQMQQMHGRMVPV

[37] = biological target: AXL (human) (UniProt P30530)
[38] = biological target: PLK1 (human) (UniProt P53350)
[39] = biological target: CAMKK2 (human) (UniProt Q96RR4)
[40] = biological target: CLK1 (human) (UniProt P49759)
[41] = biological target: ABL1 (human) (UniProt P00519)

Chain of MAPK14 (human) (Q16539 whole entry, looked up): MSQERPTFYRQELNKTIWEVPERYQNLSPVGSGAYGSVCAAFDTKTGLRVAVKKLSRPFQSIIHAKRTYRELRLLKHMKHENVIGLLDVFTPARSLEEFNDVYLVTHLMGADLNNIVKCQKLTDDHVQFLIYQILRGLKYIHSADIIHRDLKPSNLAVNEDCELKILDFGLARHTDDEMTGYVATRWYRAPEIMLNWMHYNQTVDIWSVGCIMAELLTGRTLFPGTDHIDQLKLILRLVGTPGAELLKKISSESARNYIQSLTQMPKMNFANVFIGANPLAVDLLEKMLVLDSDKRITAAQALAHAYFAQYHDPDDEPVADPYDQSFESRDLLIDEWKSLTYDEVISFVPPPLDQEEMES
Chain of OXSR1 (human) (O95747 whole entry, looked up): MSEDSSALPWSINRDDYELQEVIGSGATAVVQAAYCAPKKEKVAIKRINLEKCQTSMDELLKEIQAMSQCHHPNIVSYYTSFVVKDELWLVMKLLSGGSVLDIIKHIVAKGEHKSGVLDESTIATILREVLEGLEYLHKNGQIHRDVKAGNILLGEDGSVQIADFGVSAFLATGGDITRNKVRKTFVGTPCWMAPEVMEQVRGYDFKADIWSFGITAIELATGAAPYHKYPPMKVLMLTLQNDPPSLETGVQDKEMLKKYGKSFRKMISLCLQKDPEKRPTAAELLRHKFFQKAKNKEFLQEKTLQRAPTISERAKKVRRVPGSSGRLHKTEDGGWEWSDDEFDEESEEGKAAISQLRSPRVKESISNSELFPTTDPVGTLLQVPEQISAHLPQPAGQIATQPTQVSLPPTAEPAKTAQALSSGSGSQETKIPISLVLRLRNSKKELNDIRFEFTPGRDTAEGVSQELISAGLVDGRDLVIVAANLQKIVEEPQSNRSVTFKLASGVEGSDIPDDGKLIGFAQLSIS

## N#Cc1c[nH]c2c[nH]/c(=N\Cc3cccnc3)cc2/c1=N\c1ccc(F)c(Cl)c1
[1]
  residual activity: 101%
[2]
  residual activity: 87.7%
[3]
  residual activity: 115%
[4]
  residual activity: 79.3%
[5]
  residual activity: 99.8%
[6]
  residual activity: 97.3%
[7]
  residual activity: 101%
[8]
  residual activity: 72.2%
[9]
  residual activity: 94.1%
[10]
  residual activity: 103%
[11]
  residual activity: 93.6%
[12]
  residual activity: 98.1%
[13]
  residual activity: 108%
[14]
  residual activity: 107%
[15]
  residual activity: 100%
[16]
  residual activity: 102%
[17]
  residual activity: 92.9%
[18]
  residual activity: 101%
[19]
  residual activity: 75.2%
[20]
  residual activity: 99%
[21]
  residual activity: 99%
[22]
  residual activity: 97.4%
[23]
  residual activity: 99.1%
[24]
  residual activity: 90.2%
[25]
  residual activity: 91.8%
[26]
  residual activity: 118%
[27]
  residual activity: 90.6%
[28]
  residual activity: 91.7%
[29]
  residual activity: 124%
[30]
  residual activity: 103%
[31]
  residual activity: 95.9%
[32]
  residual activity: 85.2%
[33]
  residual activity: 88.1%
[34]
  residual activity: 52.7%
[35]
  residual activity: 66.6%
[36]
  residual activity: 92.8%
[37]
  residual activity: 103%
[38]
  residual activity: 92.6%
[39]
  residual activity: 90.1%
[40]
  residual activity: 91%
[41]
  residual activity: 93.4%

## Cn1c2ccccc2c2c3c(c4c5ccccc5n(CCC#N)c4c21)CNC3=O
[1]
  residual activity: 84.7%
[2]
  residual activity: 102%
[3]
  residual activity: 93.5%
[4]
  residual activity: 18%
[5]
  residual activity: 61.9%
[7]
  residual activity: 45.3%
[8]
  residual activity: 5.68%
[9]
  residual activity: 27.8%
[10]
  residual activity: 79.8%
[11]
  residual activity: 20.2%
[12]
  residual activity: 56.8%
[13]
  residual activity: 84.4%
[14]
  residual activity: 0.516%
[15]
  residual activity: 109%
[16]
  residual activity: 98.3%
[17]
  residual activity: 96.9%
[18]
  residual activity: 60.6%
[19]
  residual activity: 89.9%
[20]
  residual activity: 115%
[21]
  residual activity: 5.58%
[22]
  residual activity: 51.3%
[23]
  residual activity: 69%
[24]
  residual activity: 7.95%
[25]
  residual activity: 55.7%
[26]
  residual activity: 84.1%
[27]
  residual activity: 88.2%
[28]
  residual activity: 107%
[29]
  residual activity: 84.3%
[30]
  residual activity: 20.3%
[31]
  residual activity: 73.1%
[32]
  residual activity: 96.3%
[33]
  residual activity: 6.39%
[34]
  residual activity: 46.3%
[35]
  residual activity: 91.7%
[36]
  residual activity: 90.4%
[37]
  residual activity: 102%
[38]
  residual activity: 103%
[39]
  residual activity: 3.88%
[40]
  residual activity: 69.9%
[41]
  residual activity: 84.6%
